Patent US10544112B2, “Identification of ebsulfur analogues with broad-spectrum antifungal activity” (priority 2017, dated 2020)
In brackets after ≈: the same amount, converted by molar mass.

Columns and labels:
[1] = system: C. albicans ATCC MYA-1003(R) (strain G); assay: microbe, parasite or virus in culture; assay type: cell-based, Candida albicans; settings: strain G; compounds 1-4n and AmB; 48 h, RPMI 1640
Protocol: (§1) Fungal MIC determination experiments were performed using untreated 96-well plates (Corning). Cells were counted either by using a hemocytometer (Hausser Scientific, Horsham, Pa., USA) or by measuring optical density at attenuance of 600 nm (OD600) by using a Genesys 20 spectrophotometer (Thermo Scientific, Waltham, Mass., USA). Spectrophotometric and colorimetric measurements in 96-well plates were performed using a SpectraMax M5 spectrometer (Molecular Devices, Sunnyvale, Calif., USA).
(§2) Yeast strains Candida albicans ATCC 10231 (strain A), C. albicans ATCC 64124 (strain B), and C. albicans ATCC MYA-2876(S) (strain C) were kindly provided by Dr. Jon Y. Takemoto (Utah State University, Logan, UT, USA). C. albicans ATCC MYA-90819(R) (strain D), C. albicans ATCC MYA-2310(S) (strain E), C. albicans ATCC 1237(R) (strain F), C. albicans ATCC MYA-1003(R) (strain G), Candida glabrata ATCC 2001 (strain H), Candida krusei ATCC 6258 (strain I), and Candida parapsilosis ATCC 22019 (strain J) were obtained from the American Type Culture Collection (ATCC, Manassas, Va., USA). The (S) and (R) indicate that ATCC reports these strains to be susceptible (S) and resistant (R) to ITC and FLC. The filamentous fungal strains Aspergillus flavus ATCC MYA-3631 (strain K), and Aspergillus terreus ATCC MYA-3633 (strain M) were also obtained from the American Type Culture Collection (ATCC, Manassas, Va., USA). Aspergillus nidulans ATCC 38163 (strain L) was kindly provided by Dr. Jon S. Thorson (University of Kentucky, Lexington, Ky., USA), respectively. Yeast strains were cultured at 35° C. Filamentous fungal strains were cultured at 25° C. and the spores were harvested. All fungal strains were cultured in RPMI 1640 medium (catalog # R6504, Sigma-Aldrich Chemical Co., St. Louis, Mo.) buffered to pH 7.0 with 0.165 M morpholinepropanesulfonic acid (MOPS) buffer (Sigma-Aldrich Chemical Co.).
(§3) The MIC values against fungal strains were determined based on a previously published protocol. MIC values for ebsulfur (2a) analogues against fungal cells were evaluated in 96-well plates as described in the CLSI document M27-A3 with minor modifications. […] Therefore, potato dextrose broth (PDB) was used to grow the yeast inocula of all strains tested, which were later diluted in RPMI 1640 medium to perform determination of MIC values. […] The tested compounds (10 mg/mL) were diluted to the working stocks (500 μg/mL) by addition of DMSO. Two-fold serial dilution of the working stocks was prepared by addition of RPMI 1640 medium (100 μL) and cell suspension (100 μL) to 96-well microtiter plate to achieve final drug and inoculum concentrations ranging from 12.5-0.02 μg/mL and 5×10^3 CFU/mL, respectively. Plates were incubated for 48 h at 35° C. […]

[2] = system: C. albicans ATCC 64124 (strain B); assay: microbe, parasite or virus in culture; assay type: cell-based, Candida albicans; settings: strain B; compounds 1-4n and AmB; 48 h, RPMI 1640
Protocol: as §1, §2, §3

[3] = system: C. albicans ATCC 90819(R) (strain D); assay: microbe, parasite or virus in culture; assay type: cell-based, Candida albicans; settings: strain D; compounds 1-4n and AmB; 48 h, RPMI 1640
Protocol: as §1, §2, §3

[4] = system: C. albicans ATCC MYA-1237(R) (strain F); assay: microbe, parasite or virus in culture; assay type: cell-based, Candida albicans; settings: strain F; compounds 1-4n and AmB; 48 h, RPMI 1640
Protocol: as §1, §2, §3

[5] = system: Aspergillus terreus ATCC MYA-3633 (strain M); assay: Antifungal MIC determination, filamentous fungi spores; assay type: cell-based; settings: strain M, all compounds, spores
Protocol: as §1, §2
(§4) The MIC values against fungal strains were determined based on a previously published protocol. MIC values for ebsulfur (2a) analogues against fungal cells were evaluated in 96-well plates as described in the CLSI document M27-A3 with minor modifications. […] Therefore, potato dextrose broth (PDB) was used to grow the yeast inocula of all strains tested, which were later diluted in RPMI 1640 medium to perform determination of MIC values. […] The tested compounds (10 mg/mL) were diluted to the working stocks (500 μg/mL) by addition of DMSO. Two-fold serial dilution of the working stocks was prepared by addition of RPMI 1640 medium (100 μL) and cell suspension (100 μL) to 96-well microtiter plate to achieve final drug and inoculum concentrations ranging from 12.5-0.02 μg/mL and 5×10^3 CFU/mL, respectively. Plates were incubated for 48 h at 35° C.
(§5) MIC assays for the spore-forming filamentous fungi, such as strain A. flavus ATCC MYA-3631 (strain K), were performed in a similar fashion. The filamentous fungal strains were first cultured at 25° C. on potato dextrose agar (PDA) plates for 3-5 days or until confluent. Spores were collected by washing the surface of the agar plates with dd H2O (5 mL) and then isolated the spores by gravity filtration (the spores are H2O soluble). […] Researchers working with spores should wear a facemask to prevent spore inhalation.

[6] = system: Aspergillus nidulans ATCC 38163 (strain L); assay: as above; assay type: cell-based; settings: strain L; spores
Protocol: as §1, §2, §4, §5

[7] = system: Aspergillus flavus ATCC MYA-3631 (strain K); assay: as above; assay type: cell-based; settings: all compounds
Protocol: as §1, §2, §4, §5

[8] = system: Candida parapsilosis ATCC 22019 (strain J); assay: Antifungal MIC determination (CLSI M27-A3, 96-well); assay type: cell-based; settings: strain J; for MIC-0: compounds 1-4n and AmB, 48 h, RPMI 1640
Protocol: as §1, §2, §3

[9] = system: Candida krusei ATCC 6258 (strain I); assay: as above; assay type: cell-based; settings: strain I; for MIC-0: compounds 1-4n and AmB, 48 h, RPMI 1640
Protocol: as §1, §2, §3

[10] = system: Candida glabrata ATCC 2001 (strain H); assay: as above; assay type: cell-based; settings: strain H; for MIC-0: compounds 1-4n and AmB, 48 h, RPMI 1640
Protocol: as §1, §2, §3

[11] = system: Candida albicans ATCC 10231 (strain A); assay: as above; assay type: cell-based; settings: strain A; compounds 1-4n and AmB; 48 h, RPMI 1640
Protocol: as §1, §2, §3

[12] = system: C. albicans ATCC MYA-2876(S) (strain C); assay: as above; assay type: cell-based, Candida albicans; settings: strain C; compounds 1-4n and AmB; 48 h, RPMI 1640
Protocol: as §1, §2, §3

[13] = system: C. albicans ATCC MYA-2310(S) (strain E); assay: as above; assay type: cell-based, Candida albicans; settings: strain E; compounds 1-4n and AmB; 48 h, RPMI 1640
Protocol: as §1, §2, §3

SMILES	MIC-0 [1] [µg/mL]	MIC-0 [2] [µg/mL]	MIC-0 [3] [µg/mL]	MIC-0 [4] [µg/mL]	MIC-0 [5] [µg/mL]	MIC-0 [6] [µg/mL]	MIC-0 [7] [µg/mL]	MIC-0 [8] [µg/mL]	MIC-0 [9] [µg/mL]	MIC-0 [10] [µg/mL]	MIC-0 [11] [µg/mL]	MIC-0 [12] [µg/mL]	MIC-0 [13] [µg/mL]	MIC ([5]; Aspergillus terreus, read-out: MIC-0) [µg/mL]	MIC ([7]; Aspergillus flavus, read-out: MIC-0) [µg/mL]	MIC ([8]; Lodderomyces parapsilosis, ATCC22019, azoles, read-out: MIC-2) [µg/mL]	MIC ([9]; Pichia kudriavzevii, ATCC6258, azoles, read-out: MIC-2) [µg/mL]	MIC ([10]; Nakaseomyces glabratus, ATCC2001, azoles, read-out: MIC-2) [µg/mL]
O=c1c2ccccc2sn1CCc1ccccc1 [Compound 3i]	1.56 (≈ 6.11 µM)	1.56 (≈ 6.11 µM)	1.56 (≈ 6.11 µM)	1.56 (≈ 6.11 µM)	0.20 (≈ 0.783 µM)	0.20 (≈ 0.783 µM)	0.78 (≈ 3.05 µM)	1.56 (≈ 6.11 µM)	1.56 (≈ 6.11 µM)	1.56 (≈ 6.11 µM)	1.56 (≈ 6.11 µM)	1.56 (≈ 6.11 µM)	1.56 (≈ 6.11 µM)	–	–	–	–	–
CCC(C)n1ncn(-c2ccc(N3CCN(c4ccc(OCC5COC(Cn6cncn6)(c6ccc(Cl)cc6Cl)O5)cc4)CC3)cc2)c1=O (stereo not shown) [ITC, itraconazole, reference compound]	–	–	–	–	–	–	–	–	–	–	–	–	–	0.975 (≈ 1.38 µM)	0.48 (≈ 0.68 µM)	0.12 (≈ 0.17 µM)	0.48 (≈ 0.68 µM)	7.8 (≈ 11.1 µM)
CC(C)CCn1sc2ccccc2c1=O [Compound 3f]	1.56 (≈ 7.05 µM)	0.78 (≈ 3.52 µM)	0.78 (≈ 3.52 µM)	0.78 (≈ 3.52 µM)	0.10 (≈ 0.452 µM)	0.02 (≈ 0.0904 µM)	0.20 (≈ 0.904 µM)	1.56 (≈ 7.05 µM)	0.39 (≈ 1.76 µM)	1.56 (≈ 7.05 µM)	1.56 (≈ 7.05 µM)	1.56 (≈ 7.05 µM)	0.78 (≈ 3.52 µM)	–	–	–	–	–
O=c1c2ccccc2sn1-c1ccc(Cl)cc1 [Compound 2c]	12.5 (≈ 47.8 µM)	>12.5	6.25 (≈ 23.9 µM)	6.25 (≈ 23.9 µM)	6.25 (≈ 23.9 µM)	6.25 (≈ 23.9 µM)	6.25 (≈ 23.9 µM)	12.5 (≈ 47.8 µM)	3.13 (≈ 12 µM)	6.25 (≈ 23.9 µM)	3.13 (≈ 12 µM)	12.5 (≈ 47.8 µM)	6.25 (≈ 23.9 µM)	–	–	–	–	–
O=c1c2ccccc2sn1-c1cccc2ccccc12 [Compound 2l]	6.25 (≈ 22.5 µM)	12.5 (≈ 45.1 µM)	3.13 (≈ 11.3 µM)	>12.5	12.5 (≈ 45.1 µM)	12.5 (≈ 45.1 µM)	12.5 (≈ 45.1 µM)	12.5 (≈ 45.1 µM)	6.25 (≈ 22.5 µM)	12.5 (≈ 45.1 µM)	6.25 (≈ 22.5 µM)	>12.5	>12.5	–	–	–	–	–
COc1cc(OC)cc(-n2sc3ccccc3c2=O)c1 [Compound 2k]	12.5 (≈ 43.5 µM)	12.5 (≈ 43.5 µM)	3.13 (≈ 10.9 µM)	12.5 (≈ 43.5 µM)	6.25 (≈ 21.8 µM)	6.25 (≈ 21.8 µM)	6.25 (≈ 21.8 µM)	6.25 (≈ 21.8 µM)	6.25 (≈ 21.8 µM)	6.25 (≈ 21.8 µM)	12.5 (≈ 43.5 µM)	3.13 (≈ 10.9 µM)	1.56 (≈ 5.43 µM)	–	–	–	–	–
